Laboratory results as given in US8138191B2, “Inhibitor compounds and cancer treatment methods” (Critical Outcome Technologies Inc., priority 2007, dated 2012).
Like-named read-outs stand apart in the source and are kept apart here.

Columns and labels:
DMS114 cells = experiment: AKT/AKT2 siRNA then COTI-2, cell viability by MTT assay, DMS114; format: cell-based, human; details: DMS114, 500 nM COTI-2
Procedure: Cell cultures were maintained under regular tissue culture conditions and passaged 1-2 times a week as recommended by ATCC. For siRNA experiments the manufacturer's conditions for growth and transfection were followed. All siRNA reagents for AKT and AKT2 transfections were obtained from Cell Signaling.
Cells were treated for 48 h with 0-100 ng of AKT or AKT2 siRNA before incubation with COTI-2 at various concentrations (0-500 nM). Following incubation for 48 h, cell viability was determined by MTT assay.

Standard lab mice = experiment: Escalating dose acute toxicity study in mice; details: 4, 8, 16 mg/kg alternate day IP, 28 days
Description: Mice were given alternate day IP injections for 28 days. […] Blood and tissue samples were harvested for histopathology.

DMS114 = experiment: in vitro IC50 against cancer cell lines, DMS114; format: cell-based; details: Homo sapiens, DMS-114, 72 h; DMS114, SCLC, 3 days
Procedure: (§1) Briefly, cells were plated in plastic tissue culture plates and grown under standard conditions for each cell line, in carbon dioxide/oxygen atmosphere in plastic tissue culture plates, in the presence of COTI-2 or COTI-219 compounds at 35° C. for 3 days. Control cultures were treated with vehicle minus compound. Cells were counted after 3 days in culture and at a cell density of no more than 80%. The following cell lines, obtained from the National Cancer Institute, were tested: human SCLC cell lines DMS153, DMS114, SHP77; human NSCLC cell lines H226, A460, A560; human breast cancer cell lines T47D, MCF7; human colon cancer cell line HT29; and, human Leukemia cell lines K562, HL60.

U87 = experiment: IC50 human glioma/astrocytoma cell lines (alamar Blue), U87; details: Homo sapiens, U-87 MG
Procedure: Cell lines were obtained from the Human Tissue Culture Collection (ATCC), grown and maintained under ATCC-specified conditions, and tested to ensure viability and lack of contaminating mycoplasma and common viruses. […] A viability stain (alamar Blue) was added to cells after 4-7 days of drug exposure (approximately 4 doublings of control cells; maximum cell density in wells approximately 80%), and assayed for total cellular metabolic activity (a function of population density of live cells) by absorbance.

HT-29 = experiment: CellTiter-Blue growth inhibition, single agents and combinations, HT-29; format: cell-based; details: Homo sapiens, read-out: Mean IC50, single agent
Procedure: (§2) The stock concentration was further diluted to 1 mM and added to a drug plate. […] Following dilution, 2 μl of test agent was transferred to the corresponding wells of a cell-containing 96-well plate with 198 μl of growth media. Tarceva® (erlotinib) was supplied by LC Labs (Woburn, Mass.).
Cells were grown to 70% confluency, trypsinized, counted, and seeded in 96-well flat-bottom plates at a final concentration of 2.5×10^3−5×10^3 cells/well (Day 0). […] Viable cell numbers were quantified by the CellTiter-Blue® cell viability assay, which measures the conversion of the indicator dye (resazurin) to resorufin, an indicator of cell viability. Experiments were repeated at least twice with the same concentrations to determine growth inhibitory activity.
(§3) The CI, a numerical value calculated as described in equation A, also provides a quantitative measure of the extent of drug interaction. A CI of less than, equal to, and more than 1 indicates synergy, additivity, and antagonism, respectively. CI=(CAx/ICx,A)+(CB,x/ICx,B) Equation A: Where CA,x and CB,x, are the concentrations of drug A and drug B used in combination to achieve x % drug effect. ICx,A and ICx,B are the concentrations for single agents to achieve the same effect.

[1] = Half-life and liver clearance rate by human liver microsomes (HLM) at 0.5 mg/mL; format: in vitro ADME; details: liver microsomes
Procedure: Sampling was conducted at 1, 20, 40, 60, 120,180 and 240 minutes and the remaining concentration of each compound was evaluated. A half life (T1/2) was calculated at each concentration, along with the rate of clearance by the liver (CL). The CL values compare favorably with published values for other marketed therapeutic agents under identical conditions. The half life of compounds according to the invention is therefore likely to be long enough to permit convenient dosing, while not being so long as to lead to accumulation in patients with potential long term toxicity effects.
The incubation mixture (500 μl) consisted of 100 μl of COTI-2, 150 μl of liver microsomal fractions (1.67 mg/ml rat/human) 35.5 μl of 100 mM phosphate buffer and 214.5 μl co-factor (NADPH, UDPGA, and MgCl2). The COTI-2 compound mixture and co-factor were pre-warmed at 37° C. for 5 min, with shaking at 150 rpm. The reaction was started by adding co-factor to the test compound mixture. The final concentration of the incubation mixture was as follows:
Blank incubation was performed with the co-factors. The sampling time points included 0 and 240 min for the blank sample, and 0, 20, 40, 60, 120, 180, and 240 min for COTI-2. At each time point 50 μl of sample was added to 150 μl of methanol to stop the reaction. The sample plates were centrifuged at 4200 rpm for 15 min and the supernatant was injected into LC-MS/MS for analysis. The percent compound remaining, rate of elimination (Kel), half-life (T1/2), and intrinsic clearance (CL) using standard calculations.

DMS153 = experiment: in vitro IC50 against cancer cell lines, DMS153; format: cell-based; details: Homo sapiens, DMS-153, 72 h; DMS153, SCLC, 3 days
Procedure: as §1

H1975 = experiment: CellTiter-Blue growth inhibition, single agents and combinations, H1975; format: cell-based; details: Homo sapiens, read-out: Mean IC50, single agent
Procedure: as §2
Viable cell numbers were quantified by the CellTiter-Blue® cell viability assay, which measures the conversion of the indicator dye (resazurin) to resorufin, an indicator of cell viability. Experiments were repeated at least twice with the same concentrations to determine growth inhibitory activity.
as §3

[2] = tested on: DMS114 and SHP-77 human small cell lung cancer lines; experiment: Actual outcome of in vitro testing in both reference human SCLC lines; format: cell-based
Procedure: as §1

[3] = 10 μmol, read-out: In vitro T½ (converted)
[4] = 100 μmol, read-out: In vitro T½ (converted)
[5] = average over 1, 10 and 100 μM, read-out: average half life (converted)
[6] = value before brackets, from 3 in vitro experiments, read-out: In vitro T½

Row | Compound | acute toxicity / adverse effects (Standard lab mice) | weight loss (Standard lab mice) | IC50 (DMS114) [nM] | IC50 (U87) [nM] | microsomal CLint at 1 µM ([1]; 1 μM) [µL/min/mg] | half-life at 1 µM ([1]; 1 μM, read-out: T1/2) [min] | half-life at 1 µM ([1]; 1 μmol, read-out: In vitro T½) [min] | microsomal CLint at 10 µM ([1]; 10 μM) [µL/min/mg] | half-life at 10 µM ([1]; 10 μM, read-out: T1/2) [min] | half-life at 10 µM [1, 3] [min] | microsomal CLint at 100 µM ([1]; 100 μM) [µL/min/mg] | half-life at 100 µM ([1]; 100 μM, read-out: T1/2) [min] | half-life at 100 µM [1, 4] [min] | half-life [1, 5] [min] | half-life [1, 6] [min] | IC50 (DMS153) [nM] | Actual outcome of in vitro testing [2] | further results
1 | S=C(N/N=C1/CCCc2cccnc21)N1CCN(c2ccccn2)CC1 [COTI-2] | No evidence of acute toxicity | None of the drugs produced any weight loss | 51 | 48 | 12 | 102 | 102 | 4 | 286 | 288 | 2 | 683 | 684 | 360 | ~360 | 73 | Active | cytotoxicity after AKT2 knock-down by siRNA (DMS114 cells): unable to exert additional significant cytotoxicity; IC50 (HT-29; HT-29, 72 h): 200 nM; IC50 (H1975; NCI-H1975, 72 h): 10 nM
2 | CN1CCN(C(=S)NN=C2c3ncccc3-c3cccnc32)CC1 [COTI-219] | No evidence of acute toxicity | None of the drugs produced any weight loss | 267 | 2370 | 4.2 | 301 | 300 | 3 | 421 | 420 | 2.5 | 508 | 510 | 408 | ~408 | 233 | Active | IC50 (HT-29; HT-29, Colon, KRAS - WT, 72 h): 7.4 nM; IC50 (H1975; NCI-H1975, H1975, NSCLC, EGFR - MUT, 72 h): 100 nM
